Experimental data reported in ChEMBL document CHEMBL1201862, “PubChem BioAssay data set” (2004).
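Results reflect a 48-hour exposure of cells in 96-well plates to compound at five concentrations. Abbreviation: GI50, concentration required for 50% inhibition of growth.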 Calls of active or inactive are those of the source. Cut-off read from the data, not from the text of the source: active = GI50 up to about 1.1 µM and inactive = higher.

Tests used:
Assay in all cases: NCI-60 cell line screen, 48 h
[1] = test system: 786-0
[2] = test system: A498
[3] = test system: A549
[4] = test system: ACHN
[5] = test system: BT-549
[6] = test system: CAKI-1
[7] = test system: CCRF-CEM
[8] = test system: COLO 205
[9] = test system: DLD-1
[10] = test system: DMS-114
[11] = test system: DMS-273
[12] = test system: DU-145
[13] = test system: EKVX
[14] = test system: HCC 2998
[15] = test system: HCT-116
[16] = test system: HCT-15
[17] = test system: HL-60
[18] = test system: HOP-62
[19] = test system: HOP-92
[20] = test system: HT-29
[21] = test system: Hs-578T
[22] = test system: IGROV-1
[23] = test system: K562
[24] = test system: KM-20L2
[25] = test system: KM12
[26] = test system: LOX IMVI
[27] = test system: LXFL 529
[28] = test system: M14
[29] = test system: M19-MEL
[30] = test system: MCF7
[31] = test system: MDA-MB-231
[32] = test system: MDA-MB-435
[33] = test system: MDA-N
[34] = test system: MOLT-4
[35] = test system: Malme-3M
[36] = test system: NCI-H226
[37] = test system: NCI-H23
[38] = test system: NCI-H460
[39] = test system: NCI-H522
[40] = test system: NCI/ADR-RES
[41] = test system: OVCAR-3
[42] = test system: OVCAR-4
[43] = test system: OVCAR-5
[44] = test system: OVCAR-8
[45] = test system: PC-3
[46] = test system: RPMI-8226
[47] = test system: RXF 393
[48] = test system: RXF 631
[49] = test system: SF-268
[50] = test system: SF-295
[51] = test system: SF-539
[52] = test system: SK-MEL-28
[53] = test system: SK-MEL-2
[54] = test system: SK-MEL-5
[55] = test system: SK-OV-3
[56] = test system: SN12C
[57] = test system: SNB-19
[58] = test system: SNB-75
[59] = test system: SNB-78
[60] = test system: SR
[61] = test system: SW-620
[62] = test system: T47D
[63] = test system: TK-10
[64] = test system: U-251
[65] = test system: UACC-257
[66] = test system: UACC-62
[67] = test system: UO-31
[68] = test system: XF498
[69] = test system: HOP-18

Measured: GI50

C=C(c1nc2ccc(Cl)cc2[nH]c1=O)C(O)c1ccc(C(O)C(=O)c2nc3ccc(Cl)cc3[nH]c2=O)cc1 (configuration not stated)
74.5 µM: [16]
inactive: [1] > 100 µM | [2] > 100 µM | [3] > 100 µM | [4] 61.7 µM | [5] > 100 µM | [6] > 100 µM | [7] 4.28 µM | [8] > 100 µM | [9] > 100 µM | [10] 35.4 µM | [11] > 100 µM | [12] > 100 µM | [13] > 100 µM | [14] > 100 µM | [15] > 100 µM | [17] 5.04 µM | [18] > 100 µM | [19] > 100 µM | [20] > 100 µM | [21] > 100 µM | [22] > 68.2 µM | [23] 49 µM | [24] 62.4 µM | [25] 60.1 µM | [26] > 83.6 µM | [27] 81.1 µM | [28] > 100 µM | [29] > 100 µM | [30] > 100 µM | [31] > 100 µM | [32] > 100 µM | [33] > 100 µM | [34] 33.2 µM | [35] > 100 µM | [36] > 100 µM | [37] > 100 µM | [38] > 100 µM | [39] 47.1 µM | [40] > 100 µM | [41] > 100 µM | [42] > 100 µM | [43] > 100 µM | [44] > 100 µM | [45] 87.9 µM | [46] 9.06 µM | [47] > 100 µM | [48] > 100 µM | [49] > 100 µM | [50] > 100 µM | [51] > 100 µM | [52] > 100 µM | [53] > 100 µM | [54] > 95.1 µM | [55] > 100 µM | [56] > 100 µM | [57] > 100 µM | [58] > 100 µM | [59] > 100 µM | [60] 83.6 µM | [61] > 100 µM | [62] > 100 µM | [63] > 100 µM | [64] > 100 µM | [65] > 100 µM | [66] > 79.6 µM | [67] > 91 µM | [68] > 100 µM

CCOC(=O)/C(C#N)=C1\N[C@H](C(=O)OCC)CO1
> 100 µM: [16]
inactive: [1] > 100 µM | [3] > 100 µM | [4] > 100 µM | [6] > 100 µM | [7] > 100 µM | [8] > 100 µM | [9] > 100 µM | [13] > 100 µM | [14] > 100 µM | [15] > 100 µM | [17] > 100 µM | [69] > 100 µM | [18] > 100 µM | [20] > 100 µM | [22] > 100 µM | [23] > 100 µM | [24] > 100 µM | [25] > 100 µM | [26] > 100 µM | [27] > 100 µM | [28] > 100 µM | [29] > 100 µM | [34] > 100 µM | [35] > 100 µM | [36] > 100 µM | [37] > 100 µM | [38] > 100 µM | [39] > 100 µM | [41] > 100 µM | [42] > 100 µM | [43] > 100 µM | [44] > 100 µM | [46] > 100 µM | [47] > 100 µM | [48] > 100 µM | [49] > 100 µM | [50] > 100 µM | [51] > 100 µM | [52] > 100 µM | [53] 30.4 µM | [54] > 100 µM | [56] > 100 µM | [57] > 100 µM | [59] > 100 µM | [60] > 100 µM | [61] > 100 µM | [64] > 100 µM | [65] > 100 µM | [66] > 100 µM | [67] > 100 µM | [68] 31.9 µM

COc1ccccc1C12OC(=O)C1(C)Oc1ccccc1C2=O (configuration not stated)
> 100 µM: [16]
inactive: [1] > 100 µM | [2] > 100 µM | [3] > 100 µM | [4] > 100 µM | [7] > 100 µM | [8] > 100 µM | [9] > 100 µM | [10] > 100 µM | [11] 22.5 µM | [13] > 100 µM | [14] > 100 µM | [15] > 100 µM | [17] > 100 µM | [18] > 100 µM | [19] 65 µM | [20] > 100 µM | [22] > 100 µM | [23] > 100 µM | [24] > 100 µM | [25] > 100 µM | [26] 26.8 µM | [27] > 100 µM | [28] > 100 µM | [29] > 100 µM | [34] > 100 µM | [35] > 100 µM | [36] > 100 µM | [37] > 100 µM | [38] > 100 µM | [41] > 100 µM | [42] > 100 µM | [43] > 100 µM | [44] > 100 µM | [46] > 100 µM | [47] > 100 µM | [48] 30.8 µM | [49] > 100 µM | [50] > 100 µM | [51] > 100 µM | [52] > 100 µM | [53] > 100 µM | [54] > 100 µM | [55] > 100 µM | [56] > 100 µM | [57] > 100 µM | [58] 34.8 µM | [59] > 100 µM | [61] > 100 µM | [63] > 100 µM | [64] > 100 µM | [65] > 100 µM | [66] > 100 µM | [67] > 100 µM | [68] > 100 µM

Nc1ccc(C(=O)N/C(=C\c2ccc3c(c2)OCO3)c2nc3ccccc3s2)cc1
11.3 µM: [16]
inactive: [1] 11.6 µM | [3] 15.5 µM | [4] 14.2 µM | [6] 15.9 µM | [7] 1.89 µM | [8] 18.4 µM | [9] 13 µM | [11] 16.8 µM | [13] 12.9 µM | [14] 14.8 µM | [19] 12.3 µM | [20] 12.6 µM | [22] 14.6 µM | [23] 5.38 µM | [24] 14.8 µM | [25] 14.8 µM | [27] 10.6 µM | [28] 11 µM | [29] 14.9 µM | [34] 2.79 µM | [35] > 10 µM | [37] > 10 µM | [39] 13.8 µM | [41] 16.9 µM | [42] 12.2 µM | [43] 22 µM | [44] 14.2 µM | [47] 14.8 µM | [48] 5.79 µM | [49] 11.9 µM | [50] 16.7 µM | [51] 17.6 µM | [52] 13.2 µM | [53] 14.8 µM | [54] 13.7 µM | [55] 21.3 µM | [56] 13 µM | [57] 15.2 µM | [59] 16.7 µM | [60] 6.01 µM | [61] 11.5 µM | [63] 19.8 µM | [64] 13.1 µM | [66] 14.4 µM | [67] 15.6 µM | [68] 12.9 µM
